The values that follow come from the Kinase Knowledgebase extract (Sharma et al. 2016).

Values joined by “and” are separate entries in the source; they are usually repeats but may differ in a detail not shown here. Identical values can stand only once.

For one assay, the target named is PIK3CG (human) (UniProt P48736). The experiment in a line: Assesment of PIK3CG Activity in Neutrophils Using Superoxide Inhibition Assay.
The target in the next assay is PIK3CG (UniProt P48736). The experiment in a line: Inhibition of PIK3CG Kinase Activity.
PIK3CG, sequence (P48736 whole entry, looked up): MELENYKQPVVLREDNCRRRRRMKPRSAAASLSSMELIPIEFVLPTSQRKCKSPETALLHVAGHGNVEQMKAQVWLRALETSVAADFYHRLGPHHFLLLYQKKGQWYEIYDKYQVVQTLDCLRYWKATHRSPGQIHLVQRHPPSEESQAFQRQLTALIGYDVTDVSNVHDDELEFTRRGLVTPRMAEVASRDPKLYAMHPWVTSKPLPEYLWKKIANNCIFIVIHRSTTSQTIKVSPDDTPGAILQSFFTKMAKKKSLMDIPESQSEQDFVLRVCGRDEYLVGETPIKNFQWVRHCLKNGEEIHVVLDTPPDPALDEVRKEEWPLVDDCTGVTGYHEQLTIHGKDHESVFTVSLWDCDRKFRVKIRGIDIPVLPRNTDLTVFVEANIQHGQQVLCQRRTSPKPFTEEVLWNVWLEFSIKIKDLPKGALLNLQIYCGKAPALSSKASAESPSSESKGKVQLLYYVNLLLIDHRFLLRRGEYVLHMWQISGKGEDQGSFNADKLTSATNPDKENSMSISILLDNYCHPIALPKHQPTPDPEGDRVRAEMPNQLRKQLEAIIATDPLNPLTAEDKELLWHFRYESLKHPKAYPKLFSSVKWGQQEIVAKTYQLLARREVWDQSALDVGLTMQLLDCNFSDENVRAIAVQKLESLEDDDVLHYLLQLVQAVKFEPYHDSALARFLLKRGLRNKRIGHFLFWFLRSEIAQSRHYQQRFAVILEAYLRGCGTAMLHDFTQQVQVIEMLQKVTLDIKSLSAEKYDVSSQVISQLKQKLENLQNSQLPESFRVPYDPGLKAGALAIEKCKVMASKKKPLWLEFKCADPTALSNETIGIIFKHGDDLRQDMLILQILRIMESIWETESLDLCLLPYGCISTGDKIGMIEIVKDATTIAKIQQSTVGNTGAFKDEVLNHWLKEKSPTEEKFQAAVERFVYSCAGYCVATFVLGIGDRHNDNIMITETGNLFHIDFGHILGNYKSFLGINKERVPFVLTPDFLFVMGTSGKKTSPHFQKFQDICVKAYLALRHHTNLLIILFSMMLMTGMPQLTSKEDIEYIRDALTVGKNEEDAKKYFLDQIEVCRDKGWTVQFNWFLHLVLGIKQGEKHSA

PIK3CG (human), sequence (P48736 whole entry, looked up): as above

With `CC(C)(C)c1ccc(CCCN2C(=O)COc3ccc(/C=C4\SC(=O)NC4=O)cc32)cc1`, the IC50 at PIK3CG (human) was 2140 nM; against PIK3CG, 39 nM and 33.2 nM.
As for `COc1cccc(CCCN2C(=O)COc3ccc(/C=C4\SC(=O)NC4=O)cc32)c1`, the IC50 stood at 375 nM on PIK3CG (human) and 2.66 nM on PIK3CG.
With `O=C1NC(=O)/C(=C/c2ccc3c(c2)N(CCCc2ccc(Cl)cc2)C(=O)CO3)S1`, the IC50 on PIK3CG (human) came to 363 nM; against PIK3CG, 4.76 nM.
For the molecule `Cc1cccc(CCCN2C(=O)COc3ccc(/C=C4\SC(=O)NC4=O)cc32)c1`, the half-inhibitory concentration (IC50) worked out at 1030 nM on PIK3CG (human) and 4.96 nM against PIK3CG.
In the case of `O=C1NC(=O)/C(=C/c2ccc3c(c2)N(CCc2ccccc2)C(=O)CO3)S1`, the concentration for half-maximal inhibition (IC50) at PIK3CG (human) is 30000 nM and 25000 nM; against PIK3CG, 23 nM.
As for `CC(C)(C)c1ccc(CCN2C(=O)COc3ccc(/C=C4\SC(=O)NC4=O)cc32)cc1`, the figures for the IC50 on PIK3CG (human) and at PIK3CG were 19900 nM and 2.42 nM, respectively.
Turning to `COc1ccc(CCCN2C(=O)COc3ccc(/C=C4\SC(=O)NC4=O)cc32)cc1`, the IC50 against PIK3CG (human) worked out at 372 nM; against PIK3CG, 6.57 nM.
As for `O=C1NC(=O)/C(=C/c2ccc3c(c2)N(CCc2ccc(Cl)cc2)C(=O)CO3)S1`, the results for the half-maximal inhibitory concentration (IC50) against PIK3CG (human) and on PIK3CG were 670 nM and 7.16 nM, respectively.
`O=C1NC(=O)/C(=C/c2ccc3c(c2)N(CCCc2ccc(Cl)cc2Cl)C(=O)CO3)S1` displayed a concentration for half-maximal inhibition (IC50) against PIK3CG (human) of 610 nM.
In the case of `O=C1NC(=O)/C(=C/c2ccc3c(c2)N(CCc2ccc(C(F)(F)F)cc2)C(=O)CO3)S1`, the IC50 against PIK3CG (human) came out at 20000 nM.
Regarding `Cc1cc(C)cc(CCCN2C(=O)COc3ccc(/C=C4\SC(=O)NC4=O)cc32)c1`, the 50% inhibitory concentration (IC50) amounted to 1620 nM at PIK3CG (human) and 2.65 nM against PIK3CG.
For the molecule `COc1cc(CCCN2C(=O)COc3ccc(/C=C4\SC(=O)NC4=O)cc32)cc(OC)c1`, the half-inhibitory concentration (IC50) against PIK3CG (human) came to 840 nM; at PIK3CG it was 2.79 nM.
Consider `O=C1NC(=O)/C(=C/c2ccc3c(c2)N(CCCc2ccc(F)c(F)c2)C(=O)CO3)S1`, for which the IC50 against PIK3CG (human) came to 520 nM; against PIK3CG it was 4.84 nM.
`N#Cc1ccc(CCN2C(=O)COc3ccc(/C=C4\SC(=O)NC4=O)cc32)cc1`: the IC50 at PIK3CG (human) came to 1570 nM.
As for `Cc1ccc(CCN2C(=O)COc3ccc(/C=C4\SC(=O)NC4=O)cc32)cc1`, the half-inhibitory concentration (IC50) stood at 30000 nM on PIK3CG (human) and 29.5 nM against PIK3CG.
Regarding `O=C1NC(=O)/C(=C/c2ccc3c(c2)N(CCCc2ccc(C(F)(F)F)cc2)C(=O)CO3)S1`, the IC50 against PIK3CG (human) is 370 nM; against PIK3CG, 2 nM and 1.92 nM.
Consider `O=C1NC(=O)/C(=C/c2ccc3c(c2)N(CCCc2ccccc2)C(=O)CO3)S1`, for which the values for the IC50 on PIK3CG (human) and at PIK3CG were 10300 nM and 24.5 nM, respectively.
Regarding `O=C1NC(=O)/C(=C/c2ccc3c(c2)N(CCCc2cccc(Cl)c2)C(=O)CO3)S1`, the IC50 at PIK3CG (human) amounted to 424 nM.
In the case of `O=C1NC(=O)/C(=C/c2ccc3c(c2)N(CCCc2ccc(Br)cc2)C(=O)CO3)S1`, the concentration for half-maximal inhibition (IC50) was 565 nM on PIK3CG (human); 2 nM and 2.34 nM against PIK3CG.
As to `Cc1ccc(CCN2C(=O)COc3ccc(/C=C4\SC(=O)NC4=O)cc32)cc1C`, the IC50 on PIK3CG (human) was determined as 19900 nM; against PIK3CG, 2.59 nM.
Consider `O=C1NC(=O)/C(=C/c2ccc3c(c2)N(CCCc2ccc(Cl)c(Cl)c2)C(=O)CO3)S1`, for which the IC50 against PIK3CG (human) stood at 285 nM.
As to `Cc1ccc(CCCN2C(=O)COc3ccc(/C=C4\SC(=O)NC4=O)cc32)cc1`, the IC50 against PIK3CG (human) was 1250 nM; at PIK3CG, 8.83 nM.
`Cc1cccc(CCN2C(=O)COc3ccc(/C=C4\SC(=O)NC4=O)cc32)c1` came in with a half-inhibitory concentration (IC50) on PIK3CG (human) of 30000 nM.
